The values that follow come from patent US20080207900A1, “TWO CYCLIC OXOMORPHORIN DERIVATIVES” (priority 2007, published 2008).

For the experiment, the system named is Aβ42 production. As to the kind of experiment: Quantitation of Aβ peptide in neuronal cell culture derived from a rat fetal brain (Aβ ELISA). It is filed as cell-based. The note with it: rat primary neuronal cell culture (cerebral cortex, 18-day embryos); medium recovered 3 days after adding the compound; Aβx-42 ELISA; test concentration not given. The text has this: Quantitation of Aβ Peptide in Neuronal Cell Culture Derived from a Rat Fetal Brain.
The cerebral cortex was isolated from 18-day embryos of Wister rats (Charles River Japan, Yokohama, Japan) and cultured. More specifically, under ether anesthesia, embryos were aseptically resected from pregnant rats. The brains were resected from the embryos and placed in an ice cold L-15 medium (Invitrogen Corp. Cat. #11415-064, Carlsbad, Calif., USA or SIGMA L15181 and the like). From the resected brains, the cerebral cortex was collected under a stereoscopic microscope. The collected pieces of the cerebral cortex were treated in an enzyme solution containing 0.25% trypsin (Invitrogen Corp. Cat. #15050-065, Carlsbad, Calif. USA) and 0.01% DNase (Sigma D5025, St. Louis, Mo., USA) at 37° C. for 30 minutes to disperse cells. Then, the enzyme reaction was stopped by adding inactivated horse serum. The resultant enzyme treatment solution was centrifuged at 1500 rpm for 5 minutes to remove the supernatant. A medium (5-10 ml) was added to the obtained cell aggregates. The medium used was Neurobasal medium (Invitrogen Corp. Cat. #21103-049, Carlsbad, Calif., USA) added with 2% B27 supplement (Invitrogen Corp. Cat #17504-044, Carlsbad, Calif. USA), 25 μM 2-mercaptoethanol (2-ME, WAKO Cat. #139-06861, Osaka, Japan), 0.5 mM L-glutamine (Invitrogen Corp. Cat. #25030-081, Carlsbad, Calif., USA) and Antibiotics-Antimycotics (Invitrogen Corp. Cat. #15240-062, Carlsbad, Calif., USA) (Neurobasal/B27/2-ME). However, a media without 2-ME (Neurobasal/B27) was used when an assay was carried out. The cell aggregates mixed with the medium were pipetted gently to re-disperse the cells. The resultant cell dispersion was filtered through a 40 μm nylon mesh (cell strainer, Cat. #. 35-2340, Becton Dickinson Labware, Franklin Lakes, N.J., USA) to obtain a neuronal cell suspension by removing cell aggregates. The resultant neuronal cell suspension was diluted with the medium and seeded into poly-L or D-lysine coated 96 well polystyrene culture vessels (Falcon Cat. #. 35-3075, Becton Dickinson Labware, Franklin Lakes, N.J., USA, coated with poly-L-lysine by a following method or BIOCOAT™πcell environments Poly-D-lysine cell ware 96-well plate, Cat. #. 35-6461, Becton Dickinson Labware, Franklin Lakes, N.J., USA) at 100 μL/well so that the initial cell density was 5×10^5 cells/cm^2. The poly-L-lysine coating was carried out as follows. Using 0.15 M Borate buffer (SIGMA P2636, St. Louis, Mo., USA) solution was aseptically prepared. The resultant solution was added to 96 well polystyrene culture vessels at […] and incubated at room temperature for 1 hour or longer or at 4° C. overnight or longer. Then the coated 96 well polystyrene culture vessels were washed with sterilized water 4 times or more, dried or rinsed with sterilized PBS or the medium and used for seeding the cells. After culturing the seeded cells were incubated at 37° C. in an incubator under a 5% CO2-95% air for 1 day, the whole medium was replaced with fresh Neurobasal/B27/2-ME medium, and the incubation was continued for 3 days.
At day 4 of culturing, drugs were added as follows. The whole medium was withdrawn and Neurobasal medium containing 2% B-27 but no 2-ME (Neurobasal/B27) was added to the well at 180 μL/well. A dimethylsulfoxide (hereinafter abbreviated as DMSO) solution of a test compound was diluted with Neurobasal/B27 to a 10 times concentration of the final concentration. The resultant diluted solution was added to the well at 20 μL/well and mixed well. The final DMSO concentration was to be 1% or less. Only DMSO was added to the control group.
After culturing 3 days after adding the compound, the whole medium was recovered. The medium thus obtained was used as ELISA samples. For Aβx-42 measurement, no dilution was made but for Aβx-40 measurement, samples were diluted 5 folds with the diluent attached to the ELISA kit to be subjected to the ELISA tests. […]
In general terms: ELISA stands for enzyme-linked immunosorbent assay.
As to `COc1cc(/C=C2\O[C@@H](C)[C@H]3COC[C@@H](c4cc(F)c(F)c(F)c4)N3C2=O)ccc1-n1cnc(C)c1` [Example 2, (Z)-(1S,6R,9aR)-3-[3-methoxy-4-(4-methylimidazol-1-yl)benzylidene]-1-methyl-6-(3,4,5-trifluorophenyl)tetrahydro-[1,4]oxazino[3,4-c][1,4]oxazin-4-one], the “Aβ42 production reducing activity” value is reported as 52 % of CTRL.

`COc1cc(/C=C2\OC(C)(C)[C@H]3CC[C@@H](c4ccc(Cl)cc4)N3C2=O)ccc1-n1cnc(C)c1` [Example 8, (Z)-(6S,8aR)-6-(4-chlorophenyl)-3-[3-methoxy-4-(4-methylimidazol-1-yl)benzylidene]-1,1-dimethyltetrahydropyrrolo[2,1-c][1,4]oxazin-4-one]: the “Aβ42 production reducing activity” value is recorded as 74 % of CTRL.

In the case of `COc1cc(/C=C2\O[C@@H](C)[C@H]3CC[C@@H](c4ccc(Cl)cc4)N3C2=O)ccc1-n1cnc(C)c1` [Example 9, (Z)-(1S,6S,8aR)-6-(4-chlorophenyl)-3-[3-methoxy-4-(4-methylimidazol-1-yl)benzylidene]-1-methyltetrahydropyrrolo[2,1-c][1,4]oxazin-4-one], the “Aβ42 production reducing activity” value was 95 % of CTRL.

Consider `COc1cc(/C=C2\OC(C)(C)[C@H]3CC[C@@H](c4cc(F)c(F)c(F)c4)N3C2=O)ccc1-n1cnc(C)c1` [Example 11, (Z)-(6S,8aR)-3-[3-methoxy-4-(4-methylimidazol-1-yl)benzylidene]-1,1-dimethyl-6-(3,4,5-trifluorophenyl)tetrahydropyrrolo[2,1-c][1,4]oxazine-4 one], for which the “Aβ42 production reducing activity” value is 67 % of CTRL.

For `COc1cc(/C=C2\O[C@@H](C)[C@H]3CC[C@@H](c4cc(F)c(F)c(F)c4)N3C2=O)ccc1-n1cnc(C)c1` [Example 12, (Z)-(1S,6S,8aR)-3-[3-Methoxy-4-(4-methylimidazol-1-yl)benzylidene]-1-methyl-6-(3,4,5-trifluorophenyl)tetrahydropyrrolo[2,1-c][1,4]oxazin-4-one], the “Aβ42 production reducing activity” value is given as 91 % of CTRL.

With `COc1cc(/C=C2\O[C@@H](C)[C@H]3CCC[C@@H](c4cc(F)c(F)c(F)c4)N3C2=O)ccc1-n1cnc(C)c1` [Example 17, (Z)-(1S,6S,9aR)-3-[3-methoxy-4-(4-methylimidazol-1-yl)benzylidene]-1-methyl-6-(3,4,5-trifluorophenyl)hexahydropyrido[2,1-c][1,4]oxazin-4-one], the “Aβ42 production reducing activity” value was 53 % of CTRL.

Take `COc1cc(/C=C2\OC(C)(C)[C@H]3COC[C@@H](c4cc(F)c(F)c(F)c4)N3C2=O)ccc1-n1cnc(C)c1` [Example 19]: the “Aβ42 production reducing activity” value is recorded as 42 % of CTRL.
